From patent publication EP1099690A1, “MONOCYCLIC $g(b)-LACTAM COMPOUNDS AND CHYMASE INHIBITORS CONTAINING THE SAME” (SHIONOGI & CO., LTD., priority 1998, dated 2000) come the findings set out here.

Usually IC50 stands for the concentration that inhibits the measured activity by half.

Common to all, as to assay type: biochemical
The target in experiment [1] is T1, human neutrophils elastase (Homo sapiens, UniProt P08246).
T1 construct: human neutrophils elastase (0.02 mg/ml in 50 mM Tris-HCl, pH 7.0, 2 mM CaCl2, Athens research and technology); purchased Athens research and technology; host or cells: human neutrophils
T1 sequence (P08246 30-267): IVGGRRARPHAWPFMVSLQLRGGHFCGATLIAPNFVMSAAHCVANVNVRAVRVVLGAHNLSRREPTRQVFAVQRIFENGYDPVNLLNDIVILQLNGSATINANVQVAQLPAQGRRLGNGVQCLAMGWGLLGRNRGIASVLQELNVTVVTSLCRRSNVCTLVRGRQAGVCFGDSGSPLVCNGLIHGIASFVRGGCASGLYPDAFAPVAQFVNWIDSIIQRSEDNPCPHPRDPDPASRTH
In words: Inhibitory activity on other serine proteases: Elastase (sucAAVpNA). Conditions: for IC50: elastase; for fold vs chymase: elastase IC50 compared with IC50 value of chymase. The protocol: The mixture of 10 µl of human neutrophils elastase (0.02 mg/ml in 50 mM Tris-HCl, pH 7.0, 2 mM CaCl2, Athens research and technology), 80 µl of buffer (50mM Tris-HCl, pH 8.0, 2 mM CaCl2) and 1 µl of the compound of the present invention (in DMSO) was incubated for 20 minutes at room temperature and for 10 minutes at 37 °C. The resultant mixture was reacted with 10 µl of a substrate (5 mM sucAAVpNA (BACHEM Feinchemikalien AG) in 50 % DMSO) for about 30 minutes at 37 °C and the absorption intensity (405 nm) was measured.
(§1) The IC50 values of each serine protease are calculated and compared with IC50 value of chymase.

The target in another experiment is T2, Cathepsin G (Homo sapiens, UniProt P08311).
T2 construct: human purulent sputum cathepsin (1.7 µg/ml in 1 mM HCl, 20 mM CaCl2, CALBIOCHEM); purchased CALBIOCHEM; host or cells: human purulent sputum
T2 sequence (P08311 21-244): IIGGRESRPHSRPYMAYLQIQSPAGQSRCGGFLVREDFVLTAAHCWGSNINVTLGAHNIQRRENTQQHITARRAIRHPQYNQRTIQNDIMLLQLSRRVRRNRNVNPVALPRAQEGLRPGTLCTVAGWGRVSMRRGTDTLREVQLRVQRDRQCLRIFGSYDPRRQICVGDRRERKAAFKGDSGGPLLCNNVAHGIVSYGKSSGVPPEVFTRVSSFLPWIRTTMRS
The experiment can be described thus: Inhibitory activity on other serine proteases: Cathepsin G (sucAAPFpNA). Conditions: for IC50: Cathepsin G; for fold vs chymase: Cathepsin G IC50 compared with IC50 value of chymase. As to the method: The mixture of 10 µl of human purulent sputum cathepsin (1.7 µg/ml in 1 mM HCl, 20 mM CaCl2, CALBIOCHEM), 80 µl of buffer (50mM Tris-HCl, pH 7.5, 5.2 mM CaCl2) and 1 µl of the compound of the present invention (in DMSO) was incubated for 20 minutes at room temperature and for 10 minutes at 37 °C. The resultant mixture was reacted with 10 µl of a substrate (5 mM sucAAPFpNA in DMSO, BACHEM Feinchemikalien AG) for about 60 minutes at 37 °C and the absorption intensity (405 nm) was measured.
as §1

A further experiment deals with T3, human serine plasmin (Homo sapiens, UniProt P00747).
T3 construct: purchased SIGMA
T3 sequence (P00747 581-810 limits assumed): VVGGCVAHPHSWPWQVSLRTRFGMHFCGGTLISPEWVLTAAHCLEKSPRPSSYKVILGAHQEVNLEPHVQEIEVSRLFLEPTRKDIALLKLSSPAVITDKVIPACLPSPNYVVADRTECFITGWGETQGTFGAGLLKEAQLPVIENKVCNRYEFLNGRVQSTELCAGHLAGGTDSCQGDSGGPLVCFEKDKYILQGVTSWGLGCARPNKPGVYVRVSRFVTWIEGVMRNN
T3 sequence (P00747 98-580 partner limits assumed): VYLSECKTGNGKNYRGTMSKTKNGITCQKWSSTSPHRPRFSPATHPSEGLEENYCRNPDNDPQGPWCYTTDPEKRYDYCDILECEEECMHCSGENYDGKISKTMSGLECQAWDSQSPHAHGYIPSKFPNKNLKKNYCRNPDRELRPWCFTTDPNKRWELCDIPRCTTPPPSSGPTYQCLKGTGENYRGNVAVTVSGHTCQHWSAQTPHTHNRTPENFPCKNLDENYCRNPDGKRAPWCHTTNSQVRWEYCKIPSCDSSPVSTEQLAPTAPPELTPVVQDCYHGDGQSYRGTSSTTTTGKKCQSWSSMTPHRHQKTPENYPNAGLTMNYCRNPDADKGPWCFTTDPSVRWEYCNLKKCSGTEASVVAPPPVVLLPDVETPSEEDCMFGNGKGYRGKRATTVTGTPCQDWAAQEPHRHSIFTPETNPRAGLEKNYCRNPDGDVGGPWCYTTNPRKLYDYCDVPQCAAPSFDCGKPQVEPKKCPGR
In words: Inhibitory activity on other serine proteases: Plasmin (Chromozyme PL). Conditions: for IC50: plasmin; for fold vs chymase: plasmin IC50 compared with IC50 value of chymase. The protocol: The mixture of 10 µl of human serine plasmin (0.1 mg/ml in 1 mM HCl, 20 mM CaCl2, SIGMA), 80 µl of buffer (50mM Tris-HCl, pH 7.5, 50 mM NaCl) and 1 µl of the compound of the present invention (in DMSO) was incubated for 20 minutes at room temperature and for 10 minutes at 37 °C. The resultant mixture was reacted with 10 µl of a substrate (5 mM Chromozyme PL(TosGPKpNA, Boehringer Mannheim) in H2O) for about 30 minutes at 37 °C and the absorption intensity (405 nm) was measured.
as §1

In a further experiment the target is T4, bovine pancreas trypsin (Bos taurus, UniProt P00760).
T4 construct: bovine pancreas trypsin (1.5 µg/ml in 1 mM HCl, 20 mM CaCl2, SIGMA); purchased SIGMA; host or cells: bovine pancreas
T4 sequence (P00760 24-246): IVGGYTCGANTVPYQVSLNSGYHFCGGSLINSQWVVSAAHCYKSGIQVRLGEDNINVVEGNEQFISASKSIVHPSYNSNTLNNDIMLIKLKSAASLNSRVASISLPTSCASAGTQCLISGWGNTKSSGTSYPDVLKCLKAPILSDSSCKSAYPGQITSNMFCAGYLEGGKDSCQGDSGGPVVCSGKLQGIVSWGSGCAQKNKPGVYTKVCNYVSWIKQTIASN
The experiment can be described thus: Inhibitory activity on other serine proteases: Trypsin (sucAAPRpNA). Conditions: for IC50: trypsin; for fold vs chymase: trypsin IC50 compared with IC50 value of chymase. As to the method: The mixture of 10 µl of bovine pancreas trypsin (1.5 µg/ml in 1 mM HCl, 20 mM CaCl2, SIGMA), 80 µl of buffer (50mM Tris-HCl, 2 mM CaCl2 pH 8.0) and 1 µl of the compound of the present invention (in DMSO) was incubated for 20 minutes at room temperature and for 10 minutes at 37 °C. The resultant mixture was reacted with 10 µl of a substrate (5 mM sucAAPRpNA (BACHEM Feinchemikalien AG) in 50 % DMSO) for about 60 minutes at 37 °C and the absorption intensity (405 nm) was measured.
as §1

Another experiment concerns the target T5, human chymase (Homo sapiens, UniProt P23946).
T5 sequence (P23946 22-247): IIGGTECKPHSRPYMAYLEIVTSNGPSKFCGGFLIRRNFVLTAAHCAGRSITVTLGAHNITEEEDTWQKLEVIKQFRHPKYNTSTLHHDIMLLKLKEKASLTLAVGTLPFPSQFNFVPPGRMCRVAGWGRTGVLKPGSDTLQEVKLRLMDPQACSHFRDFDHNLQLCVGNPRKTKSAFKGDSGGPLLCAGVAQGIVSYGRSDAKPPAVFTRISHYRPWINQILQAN
The experiment can be described thus: Chymase inhibitory activity (Suc-Ala-Ala-Pro-Phe-pNA substrate, absorption 405 nm). Conditions: purified human chymase, 30 minutes at 37 °C preincubation, substrate 0.5 mM. The protocol: Compound (I) was dissolved in dimethylsulfoxide (DMSO) at 10^-2 M. Concentration of DMSO for activity measurement was 1 %.
Compound (I) dissolved in DMSO and purified human chymase (Takai et al., Clinica Chimica Acta 265, 1997, 13-20) were added to a buffer (0.1M Tris-HCl, 1.8M NaCl pH8.0). After the mixture was treated for 30 minutes at 37 °C, Suc-Ala-Ala-Pro-Phe-pNA (BACHEM Feinchemikalien AG) was added at 0.5 mM as a substrate and the mixture was enzymatically reacted at 37 °C.
After the reaction, the absorption intensity (405 nm) of the solution was measured to calculate the inhibitory rate.

A further experiment concerns the target T6, human plasma thrombin (Homo sapiens, UniProt P00734).
T6 construct: human plasma thrombin (1 U/ml in 10 mM Mes, pH 6.0, 0.1 M NaCl, SIGMA); purchased SIGMA; host or cells: human plasma
The experiment can be described thus: Inhibitory activity on other serine proteases: Thrombin (Chromozyme TH). Conditions: for IC50: thrombin; for fold vs chymase: thrombin IC50 compared with IC50 value of chymase. The protocol: The mixture of 10 µl of human plasma thrombin (1 U/ml in 10 mM Mes, pH 6.0, 0.1 M NaCl, SIGMA), 80 µl of buffer (0.1 M Tris-HCl, pH 8.0, 10 mM CaCl2, 0.1 M NaCl) and 1 µl of the compound of the present invention (in DMSO) was incubated for 20 minutes at room temperature and for 10 minutes at 37 °C. The resultant mixture was reacted with 10 µl of a substrate (5 mM Chromozyme TH (TosGPRpNA, Boehringer Mannheim) in H2O) for about 60 minutes at 37 °C and the absorption intensity (405 nm) was measured.
as §1

Take `CCOc1ccccc1CC1C(=O)N(C(=O)NC(c2ccccc2)c2ccccc2)C1Oc1ccc(C(=O)O)cc1` (stereo not shown) [Compound I-144, 4-[1-(Benzhydryl-carbamoyl)-3-(2-ethoxy-benzyl)-4-oxo-azetidin-2-yloxy]-benzoic acid]: the IC50 in experiment [1] was above 100000 nM; against Cathepsin G, 35.4 nM; on human serine plasmin, above 10000 nM; at bovine pancreas trypsin, 25000 nM; at human chymase, 3.1 nM; against human plasma thrombin, above 100000 nM. For the same compound, the fold vs chymase is listed as above 30000 in experiment [1]; 11 at Cathepsin G; above 3000 on human serine plasmin; 8000 at bovine pancreas trypsin; above 30000 at human plasma thrombin.

On to `CCOc1ccccc1C[C@@H]1C(=O)N(C(=O)NC(c2ccccc2)c2ccccc2)[C@H]1Oc1ccc(C(=O)NS(=O)(=O)c2ccccc2)cc1` [Compound I-151], for which the IC50 at human chymase was 4.6 nM.

As for `CCOc1ccccc1C[C@@H]1C(=O)N(C(=O)NC(c2ccccc2)c2ccccc2)[C@H]1Oc1ccc(C(=O)O)c(C(=O)O)c1` [Compound I-152], the IC50 at human chymase turned out to be 4.1 nM. This IC50 and that of the compound before are within 1.5-fold of each other.

Compound `CCOc1ccccc1C[C@@H]1C(=O)N(C(=O)NC(c2ccccc2)c2ccccc2)[C@H]1Oc1ccc(CC(=O)O)cc1` [Compound I-154] yielded an IC50 against human chymase of 2.5 nM.

For `CCOc1ccccc1C[C@@H]1C(=O)N(C(=O)NC(c2ccccc2)c2ccccc2)[C@H]1Oc1ccc(/C=C/C(=O)O)cc1` [Compound I-155], the IC50 against human chymase stood at 3.8 nM.

Regarding `CCOc1ccccc1C[C@@H]1C(=O)N(C(=O)NC(c2ccc(C)cc2)c2ccc(C)cc2)[C@H]1Oc1ccc(C(=O)O)cc1` [Compound I-158], the IC50 in experiment [1] was 25000 nM; on Cathepsin G, 143 nM; against human serine plasmin, above 100000 nM; against bovine pancreas trypsin, 6200 nM; at human chymase it was 8.2 nM; on human plasma thrombin, above 100000 nM. In addition, the fold vs chymase in experiment [1] was 3000; at Cathepsin G, 17; at human serine plasmin, above 10000; at bovine pancreas trypsin it was 760; at human plasma thrombin, above 10000.

For the compound `CCOc1ccccc1C[C@@H]1C(=O)N(C(=O)NC(c2ccc(F)cc2)c2ccc(F)cc2)[C@H]1Oc1ccc(C(=O)O)cc1` [Compound I-159], half-maximal inhibition at human chymase (IC50) was put at 14.5 nM.

Take `CCOc1ccccc1C[C@@H]1C(=O)N(C(=O)NC(c2ccc(OC)cc2)c2ccc(OC)cc2)[C@H]1Oc1ccc(C(=O)O)cc1` [Compound I-160]: on human chymase, the IC50 worked out at 15 nM.

As for `CCCc1ccccc1C[C@@H]1C(=O)N(C(=O)NC(c2ccccc2)c2ccccc2)[C@H]1Oc1ccc(C(=O)O)cc1` [Compound I-161], at human chymase, the IC50 was 18 nM.

In turn, `CCC1(Cc2ccccc2)C(=O)N(C(=O)NC(C)c2ccccc2)C1Oc1ccc(C(=O)O)cc1` (stereo not shown) [Compound I-172] had an IC50 against human chymase of 115 nM. This IC50 lies about 6.4-fold higher than the previous one.

`CCC1(Cc2ccccc2)C(=O)N(C(=O)NC(C)c2ccccc2)C1Oc1ccc(C(=O)N2CCN(C)CC2)cc1` (stereo not shown) [Compound I-173]: at human chymase, the IC50 stood at 190 nM. This IC50 lies about 1.7-fold higher than the previous one.
